{"source": "patent US7816096B2", "about": "“Assay solution compositions and methods for GPCR arrays” (priority 2003, dated 2010)", "key": {"[1]": {"target": "neurotensin receptor Subtype-1 (NTR1) (Homo sapiens, UniProt P30989)", "sequence (P30989 whole entry)": "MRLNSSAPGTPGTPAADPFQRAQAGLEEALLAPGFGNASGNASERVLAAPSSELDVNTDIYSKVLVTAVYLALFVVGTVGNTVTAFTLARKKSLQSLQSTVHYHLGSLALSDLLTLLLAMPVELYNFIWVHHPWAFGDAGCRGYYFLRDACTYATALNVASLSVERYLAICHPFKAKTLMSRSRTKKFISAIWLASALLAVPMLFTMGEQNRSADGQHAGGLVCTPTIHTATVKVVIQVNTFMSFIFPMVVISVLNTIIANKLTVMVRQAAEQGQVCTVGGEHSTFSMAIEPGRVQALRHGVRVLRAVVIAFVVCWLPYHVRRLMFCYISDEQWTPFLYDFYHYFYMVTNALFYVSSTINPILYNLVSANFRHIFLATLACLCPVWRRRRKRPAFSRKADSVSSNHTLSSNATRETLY", "conditions": "100 mM NaCl present or absent; 2 nM Bodipy-TMR-neurotensin 2-13", "procedure": "(§1) For the binding assays, each individual array was incubated with 10 μl of a solution containing labeled ligand(s) at a particular concentration in the absence and presence of varying amounts (0-1000 nM) of unlabeled compounds. The binding buffer used for all experiments was Tris-HCl (50 mM, pH 7.4) containing 10 mM MgCl2, 0.1% BSA and 1 mM EDTA.\n(§2) After executing the binding assays, the microarrays are washed and dried, and then examined using Genepix scanner 4000 (Axon Instruments, Union City, Calif.). Using Genepix software, resulting data is analyzed. Each data point in the plots represents the average of at least three replicate micospots. Using non-linear regression analysis (Graphpad PRISM, Graphpad Software Inc., San Diego, Calif.), one can estimate Kd and IC50."}, "[2]": {"target": "NTR1 (Rattus norvegicus, UniProt P20789)", "sequence (P20789 whole entry)": "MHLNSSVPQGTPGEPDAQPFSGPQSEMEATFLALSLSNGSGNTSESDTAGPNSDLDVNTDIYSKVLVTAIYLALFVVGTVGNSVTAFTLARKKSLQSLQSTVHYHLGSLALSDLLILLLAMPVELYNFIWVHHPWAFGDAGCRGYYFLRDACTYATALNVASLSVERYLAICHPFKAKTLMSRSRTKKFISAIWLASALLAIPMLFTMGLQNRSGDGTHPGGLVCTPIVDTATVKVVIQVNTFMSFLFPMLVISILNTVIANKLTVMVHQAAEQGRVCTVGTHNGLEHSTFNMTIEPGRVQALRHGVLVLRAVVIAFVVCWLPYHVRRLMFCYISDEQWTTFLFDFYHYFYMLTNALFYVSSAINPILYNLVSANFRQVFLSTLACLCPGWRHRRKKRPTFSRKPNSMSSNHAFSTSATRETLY", "conditions": "cited from earlier work"}, "[3]": {"target": "T1, muscarinic receptor subtype 1 (M1) (Homo sapiens, UniProt P11229)", "T1 sequence (P11229 1-460)": "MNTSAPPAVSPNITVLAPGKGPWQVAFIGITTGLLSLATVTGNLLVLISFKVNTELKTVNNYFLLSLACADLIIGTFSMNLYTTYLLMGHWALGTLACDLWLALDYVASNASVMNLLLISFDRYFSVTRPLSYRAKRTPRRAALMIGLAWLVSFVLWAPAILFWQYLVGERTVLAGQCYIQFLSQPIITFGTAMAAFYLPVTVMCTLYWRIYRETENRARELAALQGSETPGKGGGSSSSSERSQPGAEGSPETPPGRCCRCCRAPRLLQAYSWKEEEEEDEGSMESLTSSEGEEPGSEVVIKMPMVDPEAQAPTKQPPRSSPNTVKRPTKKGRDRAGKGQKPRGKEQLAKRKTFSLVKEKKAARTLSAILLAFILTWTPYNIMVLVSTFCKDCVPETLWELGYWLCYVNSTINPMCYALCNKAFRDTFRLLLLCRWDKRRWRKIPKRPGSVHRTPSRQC", "experiment": "multiplexed competitive binding assay on GPCR microarray", "conditions": "1 uM unlabeled telenzepine; cocktail of labeled ligands incl. 2 nM Cy3B-telenezepine", "procedure": "FIGS. 2C & 2D, respectively, are graphs of the percent of total detected signal in the presence and absence of 1 μM telenzepine.\nA single buffered binding solution composition, according to the invention—including for example, 50 mM Tris-HCl, pH 7.4, 10 mM MgCl2, 1 mM EDTA, 0.1 wt. % BSA—is used for multiplexed competitive binding assay. […] Telenzepine is an antagonist for M1 receptor alone.\nas §1, §2"}}, "data": [{"smiles": "[Cl-].[Na+]", "note": "[NaCl]", "values": [{"measurement": "effect on binding of BT-NT to NTR1 (total binding signal)", "setting": "[1]", "value": "strongly influences"}]}, {"smiles": "[Na+]", "note": "[sodium ions]", "values": [{"measurement": "IC50", "setting": "[2]; read-out: IC50 for inhibition of binding of radio-labeled neurotensin to NTR1", "value": 18, "unit": "mM"}, {"measurement": "inhibition of binding of radio-labeled neurotensin to NTR1", "setting": "[2]; sodium ions at a concentration as low as about 20 mM", "value": "at least 50%"}]}, {"smiles": "Cc1scc2c1N(C(=O)CN1CCN(C)CC1)c1ccccc1NC2=O", "note": "[telenzepine]", "values": [{"measurement": "inhibition of the binding of labeled ligands to M1 receptors", "setting": "[3]", "value": "specific and selective inhibition"}]}]}
